In patent US7879835B2 (Korea Research Institute of Chemical Technology, priority 2004, dated 2011):
Where two headings read alike, the source gives them in different places.

What was measured:
MG-63 cells = assay: Cytotoxicity test against osteoblast (MTT); assay type: cell-based, human
Method in brief: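 MG-63 human osteosarcoma cells exposed to 0.1, 0.3, 1.0 and 3.0 μM compound in DMEM with 10% FBS. Osteoclast progenitors in the same text were run at 2, 4 and 8 μM, 48 h, α-MEM + 20 ng/ml M-CSF, 37 °C; MTT added 3 h before end, A550 as % of control.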

[1] = test system: female mice with osteoporosis induced by ovariectomy; assay: Bone mineral density (BMD) of ovariectomized multiparous mice; assay type: in vivo; conditions: for decrease of BMD: after 8 weeks
Description: The effect of Compound Nos. 274 and 388 of the present invention on BMD of female mice with osteoporosis induced by ovariectomy was examined as follows.
Specifically, after anesthetizing female mice used as a control by abdominal administration with a mixture of 10 mg/kg body weight of Ketamin HCl (Ketara) and 0.15 ml/kg body weight of 2% Xylazine HCl (Roupun), the lumbar dorsum of each mouse was shaved bilaterally and the exposed skin was prepared for aseptic surgery by a 10% povidone-iodine scrub followed by a 70% alcohol wipe. A 1-cm incision was made in the central region of the abdomen, and the ovaries were identified with caution not to damage the main organs such as the liver and diaphragm. The ovaries were ligated with a suture thread, and then severed. Thereafter, each organ was relocated to its original position, and the incision was closed with a suture thread in an interrupted pattern. After ovariectomy, the mice were injected with 0.088 mg/kg body weight of gentamicin to prevent infection.
To investigate the change in BMD of the mice, bone mineral density was measured before the ovariectomy and every two weeks for 8 weeks after the ovariectomy using a bone mineral densitometer, XCT 540 Research SA (Stratec, Germany). Specifically, BMD measurement was made at a voxel size of 0.1 mm×0.1 mm, threshold values of 280 mg/cm^2 for cancellous bone and 500 mg/cm^2 for compact bone, and the analysis sites at the proximal tibias were determined by Scout scans (10 mm/sec). BMD was measured at three slices at the determined sites by CT scans (7 mm/sec), and the measurement was performed twice or more at the same site.
Multiparous mice each weighing […] were subjected to ovariectomy in accordance with the method of (3-1). From the 2nd day to 12th week after the ovariectomy, the mice were injected subcutaneously once a day with 0.5 and 1 mg/kg body weight/day of Compound Nos. 274 and 388, respectively. Alternatively, the mice were administered orally with 2.5 and 7.5 mg/kg body weight/day of Compound Nos. 274 and 388. BMD was measured before the ovariectomy, and during the period of the 2nd week to 11th week after the ovariectomy.

[2] = In vitro pharmacokinetics: metabolic stability in liver microsome; assay type: in vitro ADME; conditions: human liver microsome 1 mg/ml, 20 μM compound; for half-life at 20 µM: liver microsomes
Description: Metabolic stabilities of the compounds of the Examples were examined by employing microsome samples prepared from the human liver.
Each 20 μM of the compounds were reacted with 1 mg/ml of liver microsome and the half-lives and one-hour stabilities of the compounds were determined.

[3] = In vivo pharmacokinetics using female mice (serum concentration, HPLC); conditions: for Half-life: read-out: Half-life (converted); for clearance: read-out: CL (clearance) (converted); for Vd: read-out: Vd (volume of distribution)
Description: Female mice each weighing […] were divided into groups of 5 mice each. The mice were anesthetized with ether, catheterized in their femoral artery and vein, respectively, and administered with 0.5 mg/kg body weight of compounds 234 and 274, and 5 mg/kg body weight of compounds 388, 404 and 415, respectively, via intravenous injection. Alternatively, 15 mg/kg body weight of compound 274 and 10 mg/kg body weight of compound 234 were orally administered to the mice.
At 0, 5, 10, 15 and 30 minutes and 1, 2, 4, 6, 9 and 12 hours after the intravenous injection, or at 0, 10, 20 and 40 minutes and 1, 2, 4, 6, 9 and 12 hours after the oral administration, 0.3 ml blood samples were taken from the mice through femoral artery. The blood samples were kept on an ice bath for 30 minutes and centrifuged at 3,000 rpm for 10 minutes to obtain a supernatant (serum). The supernatant samples were stored at −20° C.
Standard solution: Compounds 234, 274, 388, 404 and 415 were respectively dissolved in methanol to a concentration of 1 mg/ml to obtain stock solutions. The stock solutions were diluted with methanol to obtain standard solutions having concentrations of 40, 20, 10, 2, 1, 0.5, 0.2, 0.05 and 0.02 μg/ml, respectively.
Standard calibration curve: A stand calibration curve was prepared by employing calibration concentrations of 0.002, 0.005, 0.02, 0.05, 0.1, 0.2, 1, 2 and 4 μg/ml.
10 μl each of the standard solutions prepared above was added to 100 μl of normal serum sample and diluted 10 times. 250 μl of acetonitrile was added to the resulting dilution and the mixture was centrifuged for 10 minutes to obtain a supernatant. 300 μl of the supernatant was dried by evaporation under a nitrogen atmosphere and reconstituted by adding 50 μl of methanol. 20 μl of the resulting solution was analyzed by HPLC to prepare a standard calibration curve. HPLC was performed with Shimadzu ODS2 column (4.6×250 mm, 5 μm by employing a mixture of methanol/water (90/10 (v/v)) as the mobile phase at a flow rate of 1.2 ml/min, and measuring the absorbance at 240 nm.
Extraction: 100 μl of the serum sample obtained in (4-2-1) was put into a 1 ml microtube and 10 μl of methanol was added thereto. 250 μl of acetonitrile was added to the microtube and the mixture was centrifuged for 10 minutes to obtain a supernatant. 300 μl of the supernatant was dried by evaporation under a nitrogen atmosphere and reconstituted by adding 50 μl of methanol. 20 μl of the resulting solution was analyzed by the HPLC method as above.
Average concentrations of the compounds in the serum samples were plotted in a semi-log scale against the time lapsed after the administration, and the pharmacokinetic parameters were determined as a non-compartment open model by employing WinNonlin® program (Pharsight Corporation).

CO/C=C(/C(=O)OC)c1ccc(Cl)cc1COc1ccc(OCCOC)cc1 [Compound No. 274, (E)-methyl-2-(2-((4-(2-methoxyethoxy)phenoxy)methyl)-4-chlorophenyl)-3-methoxyacrylate]
relative absorbance relative to that of the control (set as 100), MTT (MG-63 cells; 0.11 uM): 113 | relative absorbance relative to that of the control (set as 100), MTT (MG-63 cells; 0.33 uM): 108 | relative absorbance relative to that of the control (set as 100), MTT (MG-63 cells; 1 uM): 106 | relative absorbance relative to that of the control (set as 100), MTT (MG-63 cells; 3 uM): 94 | increase of BMD ([1]; oral administration (2.5 and 7.5 mg/kg body weight/day), FIGS. 1a and 1b): 0.8% | change of BMD ([1]; subcutaneous injection once a day (0.5 and 1 mg/kg body weight/day), FIGS. 1a and 1b): no decrease of BMD | One-hour stability [2]: 72% | half-life at 20 µM [2]: > 3 h | AUC (area under the curve of blood concentration versus time) ([3]; I.V.): 47200 ± 25800 ng·h/mL | AUC (area under the curve of blood concentration versus time) ([3]; Oral): 80600 ± 45400 ng·h/mL | CL (clearance) ([3]; Oral): 7.5 ± 3.4 mL/h | Vd (volume of distribution) ([3]; Oral): 0.0434 ± 0.0468 L/kg | Half-life ([3]; mouse, serum, 15 mg/kg, Oral): 4.2 ± 3.7 h | bioavailability ([3]; mouse, serum, 15 mg/kg, oral versus I.V., read-out: Bioavailability): 8.5% | clearance ([3]; mouse, serum, iv, I.V.): 0.238 mL/min | Half-life ([3]; mouse, serum, iv, I.V.): 3.5 ± 2.3 h | Vd ([3]; mouse, serum, iv, I.V.): 0.0503 ± 0.0098 L/kg

CO/C=C(/C(=O)OC)c1ccccc1COc1cccc(N2CCCCC2)c1 [Compound No. 388, (E)-methyl-2-[2-((3-(piperidin-1-yl)phenoxy)methyl)phenyl]-3-methoxyacrylate]
relative absorbance (MTT) relative to control (set as 100) (MG-63 cells; 0.33 μM compound): 105 | relative absorbance (MTT) relative to control (set as 100) (MG-63 cells; 1 μM compound): 84 | relative absorbance (MTT) relative to control (set as 100) (MG-63 cells; 3 μM compound): 81 | decrease of BMD ([1]; oral administration 2.5 mg/kg): 10.6% | decrease of BMD ([1]; oral administration 7.5 mg/kg): 10.2% | decrease of BMD ([1]; subcutaneous injection 0.5 mg/kg): 5.0% | decrease of BMD ([1]; subcutaneous injection 1 mg/kg): 6.7% | half-life at 20 µM [2]: 0.512 h | AUC (area under the curve of blood concentration versus time) ([3]; I.V.): 112600 ± 13000 ng·h/mL | clearance ([3]; mouse, serum, iv, I.V.): 0.0483 mL/min | Half-life ([3]; mouse, serum, iv, I.V.): 7.3 ± 1.2 h | Vd ([3]; mouse, serum, iv, I.V.): 0.0274 ± 0.002 L/kg
